In patent publication US20040039059A1, “Use of n,n' -dibenzyl ethylene diamine-n, n'- diacetic acid derivatives as anti-pollution agent” (priority 2000, published 2004):

Tested on: human keratinocytes
Experiment: Neutral red incorporation test: cytotoxicity of cadmium chloride on human keratinocytes in culture, with or without protecting agent
Format: cell-based
Conditions: for protection of cells against the toxicity of cadmium chloride (in words): protecting agent at 50 and 100 μM
Experimental: The cytotoxic effect of cadmium on human keratinocytes in culture was evaluated by means of a technique of measuring the cell viability, known as the neutral red incorporation test (E. Borenfreund and J. A. Puerner, Tissue Culture Methods. 1984, 9: 7-9).
The study was performed on a monolayer culture of human keratinocytes obtained from plastic surgeries. The cells are inoculated on D-3 into 96-well culture dishes at a rate of 25 000 cells/cm^2 in 100 μl of culture medium (calf serum-free defined medium, NR2, Biofluids). The incubations are performed in an incubator at 37° C. under a humid atmosphere enriched with 5% CO2.
The cells are treated for 24 hours with increasing concentrations (0, 10, 25, 50, 75, 100, 150 and 200 μM) of cadmium chloride (CdCl2) alone, so as to determine its cytotoxicity. In parallel, a treatment is performed under the same conditions, but in the presence of N,N′-bis(3,4,5-trimethoxybenzyl)ethylenediamine-N,N′-diacetic acid (100 and 50 μm). The incubations are performed in an incubator at 37° C., [lacuna] % CO2 under a humid atmosphere.
At the end of the period of contact, a neutral red incorporation test is performed and the results are read on a spectrophotometer at 550 nm.
To do this, the cells are rinsed with PBS buffer in order to remove the treatment solutions; 100 μl per well of a 0.5 mg/ml neutral red solution are added to the culture medium; the mixture is incubated at 37° C. and 5% CO2, under a humid atmosphere, for three hours; the resulting mixture is rinsed with PBS; fixing is performed with formaldehyde/calcium solution for one minute; the neutral red is extracted with 100 μl/well of ethanol-acetic acid solution; the optical density is read on the spectrophotometer at 550 nm and the CdCl2 concentration, resulting in a 50% reduction in viability=IC-50, is calculated.

Row | SMILES | protection of cells against the toxicity of cadmium chloride (in words) (human keratinocytes) | protection of cells against the toxicity of cadmium chloride (in words) (human keratinocytes, listed as N,N′-dimethylethylenediamine-N,N′-diacetic acid) | factor by which the cytotoxicity of cadmium chloride decreases (protecting agent at 50 μM) | factor by which the cytotoxicity of cadmium chloride decreases (protecting agent at 100 μM) | IC50 (CdCl2 alone, 24 hours, human keratinocytes, neutral red, concentration giving 50% drop in cell viability, read-out: IC.50 of cadmium chloride without protecting agent (Mean ± SEM)) [µM]
1 | COc1cc(CN(CCN(CC(=O)O)Cc2cc(OC)c(OC)c(OC)c2)CC(=O)O)cc(OC)c1OC [N,N′-bis(3,4,5-trimethoxybenzyl)ethylenediamine-N,N′-diacetic acid] | significantly protects the cells against the toxicity of this pollutant | cytotoxicity of cadmium chloride decreases significantly | 2.3 | 3.1 | –
2 | [Cl][Cd][Cl] [cadmium chloride, reference compound] | – | – | – | – | 39
